{"source": "patent US20150158956A1", "about": "“MULTIVALENT ANTIVIRAL COMPOSITIONS, METHODS OF MAKING, AND USES THEREOF” (The Charles Stark Draper Laboratory, Inc., priority 2013, published 2015)", "key": {"RSV strain A2": {"tested_on": "RSV strain A2", "assay": "RSV plaque assay on Vero cell monolayers, sample pre-mixed with RSV strain A2 (Example 7)", "format": "cell-based, respiratory syncytial virus", "settings": "in solution; Vero cells; 200 PFU RSV strain A2, 30 min at 37° C. pre-mix; read-out: concentration achieving a 50% reduction in RSV infectivity", "experimental": "The ability of liposomes to block RSV infection of Vero cells was examined. The blocking ability of liposomes was compared to purified sulfated octasaccharide, in solution, and a control, i.e., a liposome without sulfated octasaccharides. Liposomes were prepared using the method described in Example 3. […] Purified sulfated octasaccharide as described in Example 1, in solution or incorporated into liposomes, at the concentrations indicated were assessed using a plaque assay. Confluent Vero cell monolayers were formed by adding 1×10^6 Vero cells to wells of a 12-well plate then incubating the cells in 1 ml Dulbecco's Modified Eagle Medium (DMEM) with 4 mM glutamine and 10% fetal bovine serum as growth medium. The medium was removed from the cells. Sulfated octasaccharide, liposomes, or buffer at the concentrations indicated (see FIG. 5) were mixed with 200 PFU RSV strain A2 in 150 mM phosphate buffered saline for 30 min at 37° C. and the mixture was added to the monolayer surface. After one hour, the mixtures were removed, and the cells were washed and overlaid with 1 ml plaquing medium (DMEM with 4 mM glutamine, 2% FBS, and 0.4% agarose). After 5 to 7 days incubation at 37° C., the number of RSV plaques was counted. Liposome treated virus was compared to untreated virus, which represented 100% infectivity."}, "[1]": {"tested_on": "respiratory syncytial virus (RSV)", "assay": "RSV plaque (PFU) assay, sample added to Vero cells simultaneously with RSV (Example 6)", "format": "cell-based", "experimental": "The ability of purified sulfated octasaccharide, in solution, to block respiratory syncytial virus (RSV) infection of Vero cells was examined. The blocking ability of purified sulfated octasaccharide was compared to heparin sodium.\nPurified sulfated octasaccharide was prepared according to the method of Example 1. Vero cells were seeded into 24-well plates and incubated at 37° C. for 24 hours to form monolayers. Samples were diluted to the desired concentration in sterile DMEM in a final volume of 225 μl. Full-length heparin sodium (the starting material) or purified HSocta was added to Vero cells simultaneously with RSV that was diluted to 300 PFU/mL then incubated at 37° C. for 30 min. Vero cells were washed with PBS and samples were incubated at 37° C. for 1 hour on Vero cells and then washed with PBS and incubated with DMEM containing 10% FBS and incubated at 37° C. for 72 h. Cells were fixed and stained with anti-glycoprotein F and anti-glycoprotein G antibodies (MAB858-2 and MAB8262F Millipore, Billerica, Mass.). Plaques were visualized with anti-mouse horseradish peroxidase-conjugated secondary antibody (BD Biosciences, San Jose, Calif.) and developed with peroxidase substrate kit (Vector Laboratories, Burlingame, Calif.). Viral plaques in the Vero monolayer were counted and the PFU/mL was determined."}}}
{"substance": "GlcUA(2S)-GlcNS(6S)-Ido(2S)-GlcNS(6S)-Ido(2S)-GlcNS(6S)-Ido(2S)-GlcNS(6S) [purified sulfated octasaccharide]", "values": [{"measurement": "IC50", "setting": "RSV strain A2", "value": "~500", "unit": "µM"}, {"measurement": "blocking PFU formation", "setting": "[1]; at 1 μg/ml or higher, RSV, Vero cells (results text says MDCK cells)", "value": "roughly 50%"}, {"measurement": "anti-RSV properties, ability to block infection of cells", "setting": "[1]; in solution, results text says MDCK cells", "value": "strong anti-RSV properties"}]}
